Reference: patent US20070128217A1 (priority 2003, published 2007)

Assays:
[1] = system: rabbit serum obtained by immunizing a rabbit with the SARS-CoV strain Frankfurt 1; type: binding; set-up: Binding of a rabbit serum to linear peptides / Binding of a rabbit serum to looped peptides / Rabbit serum linear peptides / Rabbit serum looped peptides / Binding of a rabbit serum to linear peptides of protein N of SARS-CoV Urbani (Rabbit serum linear peptides) / Binding of a rabbit serum to looped/cyclic peptides of protein N of SARS-CoV Urbani (Rabbit serum looped peptides): unit not given here
[2] = system: control sera (pooled serum of ten healthy LUMC hospital workers; commercial negative donor pooled serum from the Dutch bloodbank); type: binding, human; set-up: Binding of Control serum LUMC to linear peptides / Binding of Control serum Blood-bank to linear peptides / Binding of Control serum LUMC to looped peptides / Binding of Control Serum Blood-Bank to Looped peptides / Binding of Control serum LUMC to linear peptides of the protein M of SARS-CoV Urbani / Binding of Control serum Blood-bank to linear peptides of the protein M of SARS-CoV Urbani / Binding of Control serum LUMC to looped peptides of the protein M of SARS-CoV Urbani / Binding of Control Serum Blood-Bank to Looped peptides of the protein M of SARS-CoV Urbani: unit not given here
[3] = system: antibodies in sera from SARS patients (sera 1a, 1b, 2, 6, 37, 62, London, SARS-yellow, SARS-green); type: binding, human; set-up: Binding of serum 6 to linear peptides of protein X1 of SARS-CoV Urbani / Binding of serum 37 to linear peptides of protein X1 of SARS-CoV Urbani / Binding of serum 6 to looped/cyclic peptide (PEPSCAN-ELISA) / Binding of serum 37 to looped/cyclic peptide (PEPSCAN-ELISA) / Binding of serum 37 to looped/cyclic peptides of protein X1 of SARS-CoV Urbani / Binding of serum 6 to linear peptides of protein X2 / Binding of serum 37 to linear peptides of protein X2 / Binding of serum 37 to looped/cyclic peptides of protein X2 of SARS-CoV Urbani / Binding of serum 6 to linear peptides of protein M of SARS-CoV Urbani / Binding of serum 37 to linear peptides of protein M of SARS-CoV Urbani / Binding of serum 6 to looped/cyclic peptides of protein M of SARS-CoV Urbani / Binding of serum 37 to looped/cyclic peptides of protein M of SARS-CoV Urbani / Binding of serum 6 to linear peptides of protein X3 of SARS-CoV Urbani / Binding of serum 37 to linear peptides of protein X3 of SARS-CoV Urbani / Binding of serum 37 to looped/cyclic peptides of protein X3 of SARS-CoV Urbani / Binding of serum 6 to linear peptides of protein X4 of SARS-CoV Urbani / Binding of serum 37 to linear peptides of protein X4 of SARS-CoV Urbani / Binding of serum 37 to looped/cyclic peptides of protein X4 of SARS-CoV Urbani / Binding of serum 6 to linear peptides of protein X5 of SARS-CoV Urbani / Binding of serum 37 to linear peptides of protein X5 of SARS-CoV Urbani / Binding of serum 37 to looped/cyclic peptides of protein X5 of SARS-CoV Urbani / Binding of serum 6 to linear peptides of protein N of SARS-CoV Urbani / Binding of serum 37 to linear peptides of protein N of SARS-CoV Urbani / Binding of serum 6 to linear peptide (PEPSCAN-ELISA) / Binding of serum 1a to looped/cyclic peptides of protein N of SARS-CoV Urbani / Binding of serum 1b to looped/cyclic peptides of protein N of SARS-CoV Urbani / Binding of serum 2 to looped/cyclic peptides of protein N of SARS-CoV Urbani / Binding of serum 6 to looped/cyclic peptides of protein N of SARS-CoV Urbani / Binding of serum 37 to looped/cyclic peptides of protein N of SARS-CoV Urbani / Binding of serum 62 to looped/cyclic peptides of protein N of SARS-CoV Urbani / Binding of serum London to looped/cyclic peptides of protein N of SARS-CoV Urbani / Binding of serum SARS-green to looped/cyclic peptides of protein N of SARS-CoV Urbani: unit not given here

ADNGTITVEELKQLL
Recognition of the peptide by the rabbit serum [1]: recognized
Binding of Control Serum Blood-Bank to Looped peptides of the protein M of SARS-CoV Urbani [2]: 0.5
Binding of Control serum Blood-bank to linear peptides of the protein M of SARS-CoV Urbani [2]: 0.7
Binding of Control serum LUMC to linear peptides of the protein M of SARS-CoV Urbani [2]: 0.5
Binding of Control serum LUMC to looped peptides of the protein M of SARS-CoV Urbani [2]: 0.7

AMDPIYDEPTTTTSV
Binding of a rabbit serum to linear peptides [1]: 0.1
Binding of a rabbit serum to looped peptides [1]: 0.4
Binding of Control Serum Blood-Bank to Looped peptides [2]: 0.7
Binding of Control serum Blood-bank to linear peptides [2]: 0.8
Binding of Control serum LUMC to linear peptides [2]: 0.6
Binding of Control serum LUMC to looped peptides [2]: 0.7

ANPAMDPIYDEPTTT
Binding of a rabbit serum to linear peptides [1]: 0.1
Binding of a rabbit serum to looped peptides [1]: 0.4
Binding of Control Serum Blood-Bank to Looped peptides [2]: 0.4
Binding of Control serum Blood-bank to linear peptides [2]: 0.4
Binding of Control serum LUMC to linear peptides [2]: 0.3
Binding of Control serum LUMC to looped peptides [2]: 0.4

ASQRVGTDSGFAAYN
Rabbit serum linear peptides [1]: 0.4
Rabbit serum looped peptides [1]: 0.1
Binding of Control Serum Blood-Bank to Looped peptides of the protein M of SARS-CoV Urbani [2]: 0.7
Binding of Control serum Blood-bank to linear peptides of the protein M of SARS-CoV Urbani [2]: 0.8
Binding of Control serum LUMC to linear peptides of the protein M of SARS-CoV Urbani [2]: 0.5
Binding of Control serum LUMC to looped peptides of the protein M of SARS-CoV Urbani [2]: 0.8

AYCCNIVNVSLVKPT
Binding of a rabbit serum to linear peptides [1]: 0.3
Binding of a rabbit serum to looped peptides [1]: 0.2
Binding of Control Serum Blood-Bank to Looped peptides [2]: 0.9
Binding of Control serum Blood-bank to linear peptides [2]: 0.9
Binding of Control serum LUMC to linear peptides [2]: 0.9
Binding of Control serum LUMC to looped peptides [2]: 0.8

CVRGTTVLLKEPCPS
Rabbit serum linear peptides [1]: 0.5
Rabbit serum looped peptides [1]: 0.5
Binding of Control Serum Blood-Bank to Looped peptides [2]: 0.9
Binding of Control serum Blood-bank to linear peptides [2]: 0.8
Binding of Control serum LUMC to linear peptides [2]: 0.7
Binding of Control serum LUMC to looped peptides [2]: 0.9

DANYFVCWHTHNYDY
Binding of a rabbit serum to linear peptides [1]: 0.1
Binding of a rabbit serum to looped peptides [1]: 0.5
Binding of Control Serum Blood-Bank to Looped peptides [2]: 0.5
Binding of Control serum Blood-bank to linear peptides [2]: 0.8
Binding of Control serum LUMC to linear peptides [2]: 0.8
Binding of Control serum LUMC to looped peptides [2]: 1.0

DGISTPKLKEDYQIG
Binding of a rabbit serum to linear peptides [1]: 0.1
Binding of a rabbit serum to looped peptides [1]: 0.4
Binding of Control Serum Blood-Bank to Looped peptides [2]: 0.3
Binding of Control serum Blood-bank to linear peptides [2]: 0.5
Binding of Control serum LUMC to linear peptides [2]: 0.6
Binding of Control serum LUMC to looped peptides [2]: 0.3

DNGTITVEELKQLLE
Recognition of the peptide by the rabbit serum [1]: recognized
Binding of Control Serum Blood-Bank to Looped peptides of the protein M of SARS-CoV Urbani [2]: 0.4
Binding of Control serum Blood-bank to linear peptides of the protein M of SARS-CoV Urbani [2]: 0.7
Binding of Control serum LUMC to linear peptides of the protein M of SARS-CoV Urbani [2]: 0.8
Binding of Control serum LUMC to looped peptides of the protein M of SARS-CoV Urbani [2]: 0.7

DNKFALTCTSTHFAF
Rabbit serum linear peptides [1]: 0.7
Rabbit serum looped peptides [1]: 0.6
Binding of Control Serum Blood-Bank to Looped peptides [2]: 0.6
Binding of Control serum Blood-bank to linear peptides [2]: 0.7
Binding of Control serum LUMC to linear peptides [2]: 0.6
Binding of Control serum LUMC to looped peptides [2]: 0.8

DPIYDEPTTTTSVPL
Binding of a rabbit serum to linear peptides [1]: 0.1
Binding of a rabbit serum to looped peptides [1]: 0.5
Binding of Control Serum Blood-Bank to Looped peptides [2]: 0.8
Binding of Control serum Blood-bank to linear peptides [2]: 0.5
Binding of Control serum LUMC to linear peptides [2]: 0.5
Binding of Control serum LUMC to looped peptides [2]: 0.7

DRHSGVKDYVVVHGY
Binding of a rabbit serum to linear peptides [1]: 0.1
Binding of a rabbit serum to looped peptides [1]: 0.5
Binding of Control Serum Blood-Bank to Looped peptides [2]: 0.6
Binding of Control serum Blood-bank to linear peptides [2]: 0.7
Binding of Control serum LUMC to linear peptides [2]: 0.7
Binding of Control serum LUMC to looped peptides [2]: 0.4

VFQSATKIIALNKRW
Recognition of the peptide by the rabbit serum [1]: recognized
Binding of serum 1a to linear peptides of protein X1 of SARS-CoV Urbani [3]: 0.8
Binding of serum 1a to looped/cyclic peptide (PEPSCAN-ELISA) [3]: 0.5
Binding of serum 1b to linear peptides of protein X1 of SARS-CoV Urbani [3]: 0.6
Binding of serum 1b to looped/cyclic peptide (PEPSCAN-ELISA) [3]: 0.4
Binding of serum 2 to linear peptides of protein X1 of SARS-CoV Urbani [3]: 0.6
Binding of serum 2 to looped/cyclic peptide (PEPSCAN-ELISA) [3]: 0.4
Binding of serum 6 to linear peptides of protein X1 of SARS-CoV Urbani [3]: 0.6
Binding of serum 6 to looped/cyclic peptide (PEPSCAN-ELISA) [3]: 0.6
Binding of serum 37 to linear peptides of protein X1 of SARS-CoV Urbani [3]: 0.7
Binding of serum 37 to looped/cyclic peptide (PEPSCAN-ELISA) [3]: 0.4
Binding of serum 62 to linear peptides of protein X1 of SARS-CoV Urbani [3]: 0.8
Binding of serum 62 to looped/cyclic peptide (PEPSCAN-ELISA) [3]: 0.6
Binding of serum London to linear peptides of protein X1 of SARS-CoV Urbani [3]: 0.3
Binding of serum London to looped/cyclic peptide (PEPSCAN-ELISA) [3]: 0.3
Binding of serum SARS-green to linear peptides of protein X1 of SARS-CoV Urbani [3]: 0.2
Binding of serum SARS-green to looped/cyclic peptide (PEPSCAN-ELISA) [3]: 0.2
Binding of serum SARS-yellow to linear peptides of protein X1 of SARS-CoV Urbani [3]: 0.5
Binding of serum SARS-yellow to looped/cyclic peptide (PEPSCAN-ELISA) [3]: 0.2

WQLALYKGFQFICNL
Binding of a rabbit serum to linear peptides [1]: 0.5
Binding of a rabbit serum to looped peptides [1]: 0.6
Binding of serum 1a to linear peptides of protein X1 of SARS-CoV Urbani [3]: 0.6
Binding of serum 1a to looped/cyclic peptide (PEPSCAN-ELISA) [3]: 0.6
Binding of serum 1b to linear peptides of protein X1 of SARS-CoV Urbani [3]: 0.2
Binding of serum 1b to looped/cyclic peptide (PEPSCAN-ELISA) [3]: 0.3
Binding of serum 2 to linear peptides of protein X1 of SARS-CoV Urbani [3]: 0.4
Binding of serum 2 to looped/cyclic peptide (PEPSCAN-ELISA) [3]: 0.4
Binding of serum 6 to linear peptides of protein X1 of SARS-CoV Urbani [3]: 0.5
Binding of serum 6 to looped/cyclic peptide (PEPSCAN-ELISA) [3]: 1.3
Binding of serum 37 to linear peptides of protein X1 of SARS-CoV Urbani [3]: 0.3
Binding of serum 37 to looped/cyclic peptide (PEPSCAN-ELISA) [3]: 0.5
Binding of serum 62 to linear peptides of protein X1 of SARS-CoV Urbani [3]: 0.4
Binding of serum 62 to looped/cyclic peptide (PEPSCAN-ELISA) [3]: 0.5
Binding of serum London to linear peptides of protein X1 of SARS-CoV Urbani [3]: 0.2
Binding of serum London to looped/cyclic peptide (PEPSCAN-ELISA) [3]: 1.5
Binding of serum SARS-green to linear peptides of protein X1 of SARS-CoV Urbani [3]: 0.3
Binding of serum SARS-green to looped/cyclic peptide (PEPSCAN-ELISA) [3]: 0.3
Binding of serum SARS-yellow to linear peptides of protein X1 of SARS-CoV Urbani [3]: 0.4
Binding of serum SARS-yellow to looped/cyclic peptide (PEPSCAN-ELISA) [3]: 0.5
